Patent US10159640B2, “Prebiotic oral care compositions containing amino acids” (COLGATE-PALMOLIVE COMPANY, priority 2013, dated 2018)

Key:
Test in all cases: Metabolic activity, Biolog phenotype microarray
Type in all cases: cell-based
Details in all cases: control without dipeptide = 1
Veillonella parvula = system: Veillonella parvula
Procedure, shortened: (§1)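 Each species, grown 48 h anaerobically on blood agar, was suspended in IF-0 fluid with tetrazolium Redox Dye D, succinate and ferric citrate, then dispensed onto dipeptide-preloaded plates. Incubated anaerobically at 37° C; OD 492 nm read at 24 and 48 h versus no-dipeptide controls; mean of three biological replicates.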

Streptococcus sanguinis = system: Streptococcus sanguinis
Procedure, shortened: as §1

Streptococcus mitis = system: Streptococcus mitis
Procedure, shortened: as §1

Tannerella forsythia = system: Tannerella forsythia
Procedure, shortened: as §1

Prevotella intermedia = system: Prevotella intermedia
Procedure, shortened: as §1

Capnocytophaga sputigena = system: Capnocytophaga sputigena
Procedure, shortened: as §1

Streptococcus gordonii = system: Streptococcus gordonii
Procedure, shortened: as §1

Fusobacterium nucleatum = system: Fusobacterium nucleatum
Procedure, shortened: as §1

Streptococcus sobrinus = system: Streptococcus sobrinus
Procedure, shortened: as §1

Actinomyces viscosus = system: Actinomyces viscosus
Procedure, shortened: as §1

[1] = system: Aggregatibacter actinomycetemcomitans
Procedure, shortened: as §1

Porphyromonas gingivalis = system: Porphyromonas gingivalis
Procedure, shortened: as §1

Streptococcus salivarius = system: Streptococcus salivarius
Procedure, shortened: as §1

Actinomyces naeslundii = system: Actinomyces naeslundii
Procedure, shortened: as §1

Streptococcus mutans = system: Streptococcus mutans
Procedure, shortened: as §1

Substance | metabolic activity: OD 492 nm divided by OD of control (Veillonella parvula; 24 hrs) | metabolic activity: OD 492 nm divided by OD of control (Veillonella parvula; 48 hrs) | metabolic activity: OD 492 nm divided by OD of control (Streptococcus sanguinis; 24 hrs) | metabolic activity: OD 492 nm divided by OD of control (Streptococcus sanguinis; 48 hrs) | metabolic activity: OD 492 nm divided by OD of control (Streptococcus mitis; 24 hrs) | metabolic activity: OD 492 nm divided by OD of control (Streptococcus mitis; 48 hrs) | metabolic activity: OD 492 nm divided by OD of control (Tannerella forsythia; 24 hrs) | metabolic activity: OD 492 nm divided by OD of control (Tannerella forsythia; 48 hrs) | metabolic activity: OD 492 nm divided by OD of control (Prevotella intermedia; 24 hrs) | metabolic activity: OD 492 nm divided by OD of control (Prevotella intermedia; 48 hrs) | metabolic activity: OD 492 nm divided by OD of control (Capnocytophaga sputigena; 24 hrs) | metabolic activity: OD 492 nm divided by OD of control (Capnocytophaga sputigena; 48 hrs) | metabolic activity: OD 492 nm divided by OD of control (Streptococcus gordonii; 24 hrs) | metabolic activity: OD 492 nm divided by OD of control (Streptococcus gordonii; 48 hrs) | metabolic activity: OD 492 nm divided by OD of control (Fusobacterium nucleatum; 24 hrs) | metabolic activity: OD 492 nm divided by OD of control (Fusobacterium nucleatum; 48 hrs) | metabolic activity: OD 492 nm divided by OD of control (Streptococcus sobrinus; 24 hrs) | metabolic activity: OD 492 nm divided by OD of control (Streptococcus sobrinus; 48 hrs) | metabolic activity: OD 492 nm divided by OD of control (Actinomyces viscosus; 24 hrs) | metabolic activity: OD 492 nm divided by OD of control (Actinomyces viscosus; 48 hrs) | further results
Met-Pro | 0.7714 | 0.6345 | 0.8599 | 0.8295 | 1.0020 | 0.9214 | 0.9040 | 0.9403 | 0.9704 | 0.9393 | 2.5077 | 1.8376 | 1.0870 | 1.0447 | 0.8752 | 0.8113 | 1.0338 | 1.0538 | 1.5865 | 2.0588 | metabolic activity: OD 492 nm divided by OD of control ([1]; 24 hrs): 0.9162; metabolic activity: OD 492 nm divided by OD of control ([1]; 48 hrs): 0.8616; metabolic activity: OD 492 nm divided by OD of control (Porphyromonas gingivalis; 24 hrs): 1.0029; metabolic activity: OD 492 nm divided by OD of control (Porphyromonas gingivalis; 48 hrs): 1.0774; metabolic activity: OD 492 nm divided by OD of control (Streptococcus salivarius; 24 hrs): 0.9990; metabolic activity: OD 492 nm divided by OD of control (Streptococcus salivarius; 48 hrs): 0.9500; metabolic activity: OD 492 nm divided by OD of control (Actinomyces naeslundii; 24 hrs): 1.0381; metabolic activity: OD 492 nm divided by OD of control (Actinomyces naeslundii; 48 hrs): 1.0427; metabolic activity: OD 492 nm divided by OD of control (Streptococcus mutans; 24 hrs): 0.9563; metabolic activity: OD 492 nm divided by OD of control (Streptococcus mutans; 48 hrs): 0.9242
Phe-Glu | 0.8043 | 0.7552 | 1.0204 | 1.0208 | 1.0644 | 1.1176 | 1.0452 | 1.0015 | 1.0519 | 0.9562 | 2.1428 | 1.7139 | 0.8472 | 0.9890 | 0.9451 | 0.9112 | 1.0354 | 1.0539 | 1.3824 | 2.1224 | metabolic activity: OD 492 nm divided by OD of control ([1]; 24 hrs): 0.9204; metabolic activity: OD 492 nm divided by OD of control ([1]; 48 hrs): 0.9345; metabolic activity: OD 492 nm divided by OD of control (Porphyromonas gingivalis; 24 hrs): 0.9806; metabolic activity: OD 492 nm divided by OD of control (Porphyromonas gingivalis; 48 hrs): 0.9029; metabolic activity: OD 492 nm divided by OD of control (Streptococcus salivarius; 24 hrs): 1.0411; metabolic activity: OD 492 nm divided by OD of control (Streptococcus salivarius; 48 hrs): 0.9959; metabolic activity: OD 492 nm divided by OD of control (Actinomyces naeslundii; 24 hrs): 0.9642; metabolic activity: OD 492 nm divided by OD of control (Actinomyces naeslundii; 48 hrs): 0.9466; metabolic activity: OD 492 nm divided by OD of control (Streptococcus mutans; 24 hrs): 1.0352; metabolic activity: OD 492 nm divided by OD of control (Streptococcus mutans; 48 hrs): 0.9816
